Key:
[1] = target: T1, IDO1 (Homo sapiens, UniProt P14902); test: Enzyme-based IDO1 activity assay; assay type: biochemical; settings: purified human IDO1 enzyme; read-out: Enzymatic assay IC50 (hIDO1)
T1 construct: made in house

[2] = target: T2, ferric IDO1 (Homo sapiens, UniProt P14902); test: Measurement of IDO1 absorbance spectra (UV–visible); assay type: binding; settings: 20 µM compound, 5 µM IDO1, phosphate buffer pH 6.5; 406 nm in absence of compound
T2 construct: made in house
Procedure: Absorbance spectra (250–480 nm) were measured immediately after addition of compound LBJ-10 (20 µM in 0.5% DMSO) to IDO1 (5 µM) in phosphate buffer (pH 6.5) using a Tecan Safire2 microplate reader.
A UV–visible spectra study was performed to evaluate the binding of the representative compound LBJ-10 (Figure 11). The absorption spectrum of the haeme group is highly sensitive to the changes in the polarity of haeme surrounding upon the ligand or substrate binding, leading to the change of spectra properties of the haeme. The UV–visible spectra of ferric IDO1 was measured in the presence and absence of compound LBJ-10.

[3] = target: T1, IDO1; test: Determination of the inhibition type (rate V against enzyme amount E); assay type: biochemical; settings: 1 µM inhibitor, 50 µM L-tryptophan
Procedure: The standard assay mixture (1 ml) contained 50 mM potassium phosphate buffer (pH = 6.5), 25 mM neutralised ascorbic acid, 10 µM methylene blue, 100 µg/mL catalase, 50 µM L-Trp, DMSO (0.5%), and eight different concentrations of IDO1. In addition, 1 µM LBJ-10 solution was added into the mixture. The reaction, at 37 °C, was started by the addition of the substrate and terminated after 60 min by adding 200 µL of 30% (w/v) trichloroacetic acid and further incubated at 50 °C for 30 min to hydrolyse N-formylkynurenine to produce kynurenine. After centrifugation at 12,000 rpm for 15 min at 20 °C, kynurenine in the supernatant (1 mL) was measured by a HPLC system with a reversed phase column (4.6 mm × 15 cm) of GL Sciences Inc. The mobile phase was 10 mM ammonium acetate containing 10% (w/v) methanol, and kynurenine was detected by absorbance at 360 nm. All determinations were carried out in duplicate. The data presented are average values. Based on the results of the activity assay, a function of rate ([V]) against enzyme amount ([E]) was proposed.
We also carried the additional experiment to determine the reversibility of compound LBJ-10. Detailed kinetics analysis was performed on LBJ-10 based on plotting a function of the rate (V) against the enzyme amount ([E]) (Figure 12(A))[58]^,[59]. […]

T1 sequence (P14902 whole entry): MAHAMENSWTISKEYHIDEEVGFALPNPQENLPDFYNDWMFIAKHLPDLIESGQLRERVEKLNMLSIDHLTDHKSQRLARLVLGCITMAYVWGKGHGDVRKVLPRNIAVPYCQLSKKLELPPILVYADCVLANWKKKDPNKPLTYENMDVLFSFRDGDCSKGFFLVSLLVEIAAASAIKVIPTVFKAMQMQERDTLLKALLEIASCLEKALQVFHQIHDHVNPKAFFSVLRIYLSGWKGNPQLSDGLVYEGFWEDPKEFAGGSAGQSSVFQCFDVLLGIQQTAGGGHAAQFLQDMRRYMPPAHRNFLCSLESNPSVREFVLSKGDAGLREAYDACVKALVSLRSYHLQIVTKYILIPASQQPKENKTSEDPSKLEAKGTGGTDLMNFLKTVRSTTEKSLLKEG
T2 sequence (P14902 whole entry): as above

IC50 [1]: 840 ± 330 nM
Soret peak of ferric IDO1 in the presence of compound [2]: 416 nm
Inhibition type (reversibility) [3]: reversible inhibitor
Compound: N#Cc1ccc(C(F)(F)F)nc1SCC(=O)Nc1ccc(F)c(Cl)c1 [LBJ-10, N-(3-chloro-4-fluorophenyl)-2-((3-cyano-6-(trifluoromethyl)pyridin-2-yl)thio) acetamide]

— paper PMC6327983, “Discovery of cyanopyridine scaffold as novel indoleamine-2,3-dioxygenase 1 (IDO1) inhibitors through virtual screening and preliminary hit optimisation” (Journal of Enzyme Inhibition and Medicinal Chemistry, 2019)
